Like-named read-outs stand apart in the source and are kept apart here.
How the values were obtained:
Parkinson's Disease [1] = test: Parkinson's patients case studies (oral nutrients plus IV infusions)
Parkinson's Disease [2] = details: 800 mild, early Parkinson's Disease patients; cited from earlier work
Parkinson's Disease [3] = details: in vivo; cited from earlier work
Parkinson's Disease [4] = details: after five years; cited from earlier work
Parkinson's Disease [5] = details: cited from earlier work
[6] = system: mouse model of Bulbar ALS; details: oral administration; cited from earlier work
Parkinson's Disease [7] = details: human, in vivo; cited from earlier work
[8] = cited from earlier work
Parkinson's Disease [9] = details: in vivo; cited from earlier work; remark: listed apart in the source
[10] = in vivo; cited from earlier work

Compound: N[C@@H](CCC(=O)N[C@@H](CS)C(=O)NCC(=O)O)C(=O)O [Glutathione, N—(N-L-gamma-glutamyl-L-cysteinyl)glycine]
- tremor (Parkinson's Disease [1]; Case Study 1, IV Glutathione push once weekly, after 6 months): slightly improved

Compound: C#CCN(C)[C@H](C)Cc1ccccc1 [Selegiline]
- delay of the progression of motor symptoms (Parkinson's Disease [2]): about nine

Compound: N[C@@H](Cc1ccc(O)c(O)c1)C(=O)O [levodopa, Levodopa]
- tolerance of drug by patient (Parkinson's Disease [1]; Case Study 6, before protocol): intolerant

Compound: CCCN[C@H]1CCc2nc(N)sc2C1 [pramipexole]
- patients completely free from motor complications (Parkinson's Disease [3]): 72%
- patients in whom dyskinesias developed (Parkinson's Disease [3]): 10%
- patients who developed motor complications (Parkinson's Disease [3]): 28%

Compound: CCCN(CCC)CCc1cccc2c1CC(=O)N2 [ropinerole]
- patients who developed dyskinesia (Parkinson's Disease [4]): 20%
- severe form among those who developed dyskinesia (Parkinson's Disease [4]): 8%
- effectiveness in comparison (Parkinson's Disease [5]; early stage Parkinson's Disease, versus levodopa): as effective as levodopa
- effectiveness in comparison (Parkinson's Disease [5]; versus bromocriptine (Parlodel)): more effective than bromocriptine

Compound: CCCC(=O)[O-].[Na+] [sodium butyrate]
- neurological phenotypes [6]: successfully ameliorated

Compound: Cc1ccc(C(=O)c2cc(O)c(O)c([N+](=O)[O-])c2)cc1 [tolcapone]
- deaths from liver failure (Parkinson's Disease [7]): three

Compound: Phosphatidylcholine [PC]
- oral absorption ([8]; taken orally with meals): up to 90 % per 24 hrs
- time over which blood levels peak ([8]; taken orally): 8 to 12 h

Compound: botulinum toxin
- effect on tremors (Parkinson's Disease [9]): without any substantial reduction in tremors

Compound: carbidopa/levodopa
- half-life compared with dopamine agonists [10]: shorter half-life
